Patent US20080139842A1, “Medicament for preventive and/or therapeutic treatment of diseases with secretory disorder” (R&R INC., priority 2006, published 2008)

Key:
Type in all cases: in vivo, female NOD/Shi Jic mice
[1] = system: NOD mice (spontaneous type I diabetes model); experiment: Evaluation in NOD mice: weekly urinalysis for urinary sugar (diabetes onset); conditions: 1 mg/kg mixed in feed over 19 weeks from 6 weeks of age, N = 6, positive = urinary glucose 2,000 mg/dl or higher, control group 2/6
From the text: (§1) NOD mice have been used as spontaneous type I diabetes and Sjoegren's syndrome model animals. Lymphocyte infiltration lesions similar to those of type I diabetes are developed in the pancreatic islets of Langerhans, and lymphocyte infiltration lesions similar to those of Sjoegren's syndrome are developed in the salivary glands (Eur. J. Immunol., 28, pp. 3336-3345, 1998). To female NOD/Shi Jic mice at 6 weeks of age, tamibarotene (Am80, 4-[(5,6,7,8-tetrahydro-5,5,8,8-tetramethyl-2-naphthalenyl)carbamoyl]benzoic acid) was administered over 19 weeks by mixing it in feed. During the test period, urinalysis was conducted once every week to measure urinary sugar. Test paper for urinalyses, Pre Test 3aII (Wako Pure Chemical Industries), was immersed in mouse fresh urine, and when a determined glucose value was 2,000 mg/dl or higher, the mouse was judged to be with diabetes. When the mice gave a sign of physical agony, they were euthanized. After the end of the administration period, pancreases and submaxillary glands were extracted from the euthanized mice, and fixed by immersion in a neutrally buffered 10% formalin fixation solution. From the fixed pancreases and submaxillary glands, hematoxin-eosin stained histopathological specimens were prepared, and the influence of tamibarotene on the pancreases and salivary glands was histopathologically evaluated. […]

[2] = system: pancreatic islets of Langerhans of NOD mice; experiment: Evaluation in NOD mice: histopathological evaluation of pancreases (islets of Langerhans); conditions: 1 mg/kg mixed in feed over 19 weeks, N = 6; for Pancreatic La islet lymphocyte infiltration score (average): score 0 no lesion, 1 slight, 2 moderate, 3 severe, control group 2.7
From the text: NOD mice have been used as spontaneous type I diabetes and Sjoegren's syndrome model animals. Lymphocyte infiltration lesions similar to those of type I diabetes are developed in the pancreatic islets of Langerhans, and lymphocyte infiltration lesions similar to those of Sjoegren's syndrome are developed in the salivary glands (Eur. J. Immunol., 28, pp. 3336-3345, 1998). To female NOD/Shi Jic mice at 6 weeks of age, tamibarotene (Am80, 4-[(5,6,7,8-tetrahydro-5,5,8,8-tetramethyl-2-naphthalenyl)carbamoyl]benzoic acid) was administered over 19 weeks by mixing it in feed. During the test period, urinalysis was conducted once every week to measure urinary sugar. Test paper for urinalyses, Pre Test 3aII (Wako Pure Chemical Industries), was immersed in mouse fresh urine, and when a determined glucose value was 2,000 mg/dl or higher, the mouse was judged to be with diabetes. When the mice gave a sign of physical agony, they were euthanized. After the end of the administration period, pancreases and submaxillary glands were extracted from the euthanized mice, and fixed by immersion in a neutrally buffered 10% formalin fixation solution. From the fixed pancreases and submaxillary glands, hematoxin-eosin stained histopathological specimens were prepared, and the influence of tamibarotene on the pancreases and salivary glands was histopathologically evaluated. For each of the tamibarotene-administered group and the control group, 6 mice were used.
The results are indicated by numbers of urinary sugar positive mice, scores for destruction of the pancreatic islets of Langerhans (henceforth occasionally abbreviated as “Pancreatic La islet”) associated with lymphocyte infiltration (Pancreatic La islet lymphocyte infiltration score), scores for decrease in number of the pancreatic islets of Langerhans (Pancreatic La islet number score), and submaxillary gland lymphocyte infiltration scores. The scores were determined according to the following criteria.
0: No lesion was observed

[3] = system: submaxillary glands of NOD mice; experiment: Evaluation in NOD mice: histopathological evaluation of submaxillary glands (Sjoegren's syndrome model); conditions: 1 mg/kg mixed in feed over 19 weeks, N = 6, score 0 no lesion to 3 severe, control group 1.7
From the text: as §1

## CC1(C)CCC(C)(C)c2cc(NC(=O)c3ccc(C(=O)O)cc3)ccc21 [Tamibarotene, 4-[(5,6,7,8-tetrahydro-5,5,8,8-tetramethyl-2-naphthalenyl)carbamoyl]benzoic acid]
[1]
  Urinary sugar positive mice: 0/6
[1]; listed as tamibarotene
  Urinary sugar positive mice: no urinary sugar positive mouse was observed
[2]
  Pancreatic La islet lymphocyte infiltration score (average): 1.7
[2]; listed as tamibarotene
  Pancreatic La islet lymphocyte infiltration score (average): apparently reduced
[2]; score for decrease in number of islets, score 0 no lesion to 3 severe, control group 1
  Pancreatic La islet number score (average): 0
[3]
  Submaxillary gland lymphocyte infiltration score (average): 0.8
[3]; listed as tamibarotene
  Submaxillary gland lymphocyte infiltration score (average): reduced
